Measurements reported in patent US5968907A (priority 1997, dated 1999).

Assays:
cholera toxin = cholera toxin (Vibrio cholerae serotype O1, UniProt P01556); test: biochemical; settings: read-out: inhibition of binding of cholera toxin to ganglioside GD1b
[1] = target: heat-labile enterotoxin from E. coli (Escherichia coli, UniProt P0CK94); format: binding; settings: at the concentration employed in the assay
heat-labile enterotoxin from E. coli, sequence (P0CK94 whole entry, looked up): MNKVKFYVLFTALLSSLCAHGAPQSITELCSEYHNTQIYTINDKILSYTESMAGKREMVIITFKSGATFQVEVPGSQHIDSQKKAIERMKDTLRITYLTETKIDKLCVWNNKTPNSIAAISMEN

cholera toxin, sequence (P01556 22-124 limits assumed): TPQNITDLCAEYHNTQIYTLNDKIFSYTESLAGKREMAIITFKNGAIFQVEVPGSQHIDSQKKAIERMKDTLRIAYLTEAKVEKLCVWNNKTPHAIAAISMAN

OC[C@H]1O[C@@H](SC2CCCC2O)[C@H](O)[C@@H](O)[C@H]1O (stereo partly drawn) [Example A1, 2-Hydroxycyclopent-1-yl 1-Thio-β-D-galactopyranoside]
inhibition at 1000 µg/mL (cholera toxin): < 20% | inhibition of binding of heat-labile enterotoxin to ganglioside GD1b [1]: at least 20%

OC[C@H]1O[C@@H](SCC2C3CCC(C3)C2O)[C@H](O)[C@@H](O)[C@H]1O (stereo partly drawn) [Example A4, (3-Hydroxynorborn-2-yl)methyl 1-Thio-β-D-galactopyranoside]
inhibition at 1000 µg/mL (cholera toxin): < 20% | inhibition of binding of heat-labile enterotoxin to ganglioside GD1b [1]: at least 20%

OC[C@H]1O[C@@H](SC2CCC(O)C2)[C@H](O)[C@@H](O)[C@H]1O (stereo partly drawn) [Example A7, 3-Hydroxycyclopent-1-yl 1-Thio-β-D-galactopyranoside]
inhibition at 1000 µg/mL (cholera toxin): < 20% | inhibition of binding of heat-labile enterotoxin to ganglioside GD1b [1]: < 20%

OC[C@H]1O[C@@H](SC2CCCC(O)C2)[C@H](O)[C@@H](O)[C@H]1O (stereo partly drawn) [Example A10, 3-Hydroxycyclohex-1-yl 1-Thio-β-D-galactopyranoside]
inhibition at 1000 µg/mL (cholera toxin): < 20% | inhibition of binding of heat-labile enterotoxin to ganglioside GD1b [1]: at least 20%

NC1CCCC1S[C@@H]1O[C@H](CO)[C@H](O)[C@H](O)[C@H]1O (stereo partly drawn) [Example B1, 2-Aminocyclopent-1-yl 1-Thio-β-D-galactopyranoside]
inhibition at 1000 µg/mL (cholera toxin): < 20% | inhibition of binding of heat-labile enterotoxin to ganglioside GD1b [1]: at least 20%

NC1C2CCC(C2)C1CS[C@@H]1O[C@H](CO)[C@H](O)[C@H](O)[C@H]1O (stereo partly drawn) [Example B4, (3-Aminonorborn-2-yl)methyl 1-Thio-β-D-galactopyranoside]
inhibition at 1000 µg/mL (cholera toxin): < 20% | inhibition of binding of heat-labile enterotoxin to ganglioside GD1b [1]: at least 20%

NC1CCC(S[C@@H]2O[C@H](CO)[C@H](O)[C@H](O)[C@H]2O)C1 (stereo partly drawn) [Example B7, 3-Aminocyclopent-1-yl 1-Thio-β-D-galactopyranoside]
inhibition at 1000 µg/mL (cholera toxin): ≥ 20% | inhibition of binding of heat-labile enterotoxin to ganglioside GD1b [1]: at least 20%

NC1CCCC(S[C@@H]2O[C@H](CO)[C@H](O)[C@H](O)[C@H]2O)C1 (stereo partly drawn) [Example B10, 3-Aminocyclohex-1-yl 1-Thio-β-D-galactopyranoside]
inhibition at 1000 µg/mL (cholera toxin): < 20% | inhibition of binding of heat-labile enterotoxin to ganglioside GD1b [1]: at least 20%

CC(=O)NC1CCCCC(S[C@@H]2O[C@H](CO)[C@H](O)[C@H](O)[C@H]2O)C1 (stereo partly drawn) [Example C5, 3-Acetamidocyclohept-1-yl 1-Thio-β-D-galactopyranoside]
inhibition at 1000 µg/mL (cholera toxin): ≥ 20% | inhibition of binding of heat-labile enterotoxin to ganglioside GD1b [1]: at least 20%

CC(=O)NC1CCC(S[C@@H]2O[C@H](CO)[C@H](O)[C@H](O)[C@H]2O)C1 (stereo partly drawn) [Example C7, 3-Acetamidocyclopent-1-yl 1-Thio-β-D-galactopyranoside]
inhibition at 1000 µg/mL (cholera toxin): ≥ 20% | inhibition of binding of heat-labile enterotoxin to ganglioside GD1b [1]: at least 20%

CC(=O)NC1CCCC(S[C@@H]2O[C@H](CO)[C@H](O)[C@H](O)[C@H]2O)C1 (stereo partly drawn) [Example C10, 3-Acetamidocyclohexyl 1-Thio-β-D-galactopyranoside]
inhibition at 1000 µg/mL (cholera toxin): ≥ 20% | inhibition of binding of heat-labile enterotoxin to ganglioside GD1b [1]: < 20%

O=C(O)c1ccccc1C(=O)NC1CCCCC(S[C@@H]2O[C@H](CO)[C@H](O)[C@H](O)[C@H]2O)C1 (stereo partly shown) [Example D5, 3-(2-Carboxybenzamido)cyclohept-1-yl 1-Thio-βD-galactopyranoside]
inhibition at 1000 µg/mL (cholera toxin): ≥ 20% | inhibition of binding of heat-labile enterotoxin to ganglioside GD1b [1]: at least 20%

O=C(O)CNC1CCCC1S[C@@H]1O[C@H](CO)[C@H](O)[C@H](O)[C@H]1O (stereo partly drawn) [Example E1, Nα-[2-(1-Thio-β-D-galactopyranosyl)cyclopent-1-yl]glycine]
inhibition at 1000 µg/mL (cholera toxin): ≥ 20% | inhibition of binding of heat-labile enterotoxin to ganglioside GD1b [1]: at least 20%

O=C(O)CNC1CCCC(S[C@@H]2O[C@H](CO)[C@H](O)[C@H](O)[C@H]2O)C1 (stereo partly drawn) [Example E10, Nα-[3-(1-Thio-β-D-galactopyranosyl)cyclohex-1-yl]glycine]
inhibition of binding of heat-labile enterotoxin to ganglioside GD1b [1]: at least 20%

CC1(C)CCC(S[C@@H]2O[C@H](CO)[C@H](O)[C@H](O)[C@H]2O)CC1NCC(=O)O (stereo partly drawn) [Example E11, Nα-[5-(1-Thio-β-D-galactopyranosyl)-2 ,2-dimethylcyclohex-1-yl]glycine]
inhibition of binding of heat-labile enterotoxin to ganglioside GD1b [1]: at least 20%

O=C(O)CCNC1CCCC1S[C@@H]1O[C@H](CO)[C@H](O)[C@H](O)[C@H]1O (stereo partly drawn) [Example F1, Nβ-[2-(1-Thio-β-D-galactopyranosyl)cyclopent-1-yl]-β-alanin]
inhibition at 1000 µg/mL (cholera toxin): < 20% | inhibition of binding of heat-labile enterotoxin to ganglioside GD1b [1]: at least 20%

O=C(O)CCNC1CCCCC1S[C@@H]1O[C@H](CO)[C@H](O)[C@H](O)[C@H]1O (stereo partly drawn) [Example F2, Nβ-[2-(1-Thio-β-D-galactopyranosyl)cyclohex-1-yl]-β-alanine]
inhibition of binding of heat-labile enterotoxin to ganglioside GD1b [1]: at least 20%

O=C(O)CCNC1CCCCC(S[C@@H]2O[C@H](CO)[C@H](O)[C@H](O)[C@H]2O)C1 (stereo partly drawn) [Example F5, Nβ-[3-(1-Thio-β-D-galactopyranosyl)cyclohept-1-yl]-β-alanine]
inhibition at 1000 µg/mL (cholera toxin): < 20% | inhibition of binding of heat-labile enterotoxin to ganglioside GD1b [1]: at least 20%

O=C(O)CCNC1CCC(S[C@@H]2O[C@H](CO)[C@H](O)[C@H](O)[C@H]2O)C1 (stereo partly drawn) [Example F7, N-β-[3-(1-Thio-β-D-galactopyranosyl)cyclopent-1-yI]-β-alanine]
inhibition at 1000 µg/mL (cholera toxin): < 20% | inhibition of binding of heat-labile enterotoxin to ganglioside GD1b [1]: at least 20%

O=C(O)CCNC1CCCC(S[C@@H]2O[C@H](CO)[C@H](O)[C@H](O)[C@H]2O)C1 (stereo partly drawn) [Example F10, Nβ-[3-(1-Thio-β-D-galactopyranosyl)cyclohex-1-yl]-β-alanine]
inhibition at 1000 µg/mL (cholera toxin): < 20% | inhibition of binding of heat-labile enterotoxin to ganglioside GD1b [1]: at least 20%

CC1(C)CCC(S[C@@H]2O[C@H](CO)[C@H](O)[C@H](O)[C@H]2O)CC1NCCC(=O)O (stereo partly drawn) [Example F11, N-β-[5-(1-Thio-α-D-galactopyranosyl)-2,2-dimethylcyclohex-1-yl]-β-alanine]
inhibition of binding of heat-labile enterotoxin to ganglioside GD1b [1]: at least 20%

CC(C)C[C@H](NC1CCCCC1S[C@@H]1O[C@H](CO)[C@H](O)[C@H](O)[C@H]1O)C(=O)O (stereo partly drawn) [Example G2, Nα-[2-(1-Thio-β-D-galactopyranosyl)cyclohex-1-yl]-L-leucine]
inhibition at 1000 µg/mL (cholera toxin): ≥ 20% | inhibition of binding of heat-labile enterotoxin to ganglioside GD1b [1]: < 20%

CC(C)C[C@H](NC1CCCCC(S[C@@H]2O[C@H](CO)[C@H](O)[C@H](O)[C@H]2O)C1)C(=O)O (stereo partly drawn) [Example G5, Nα-[1-(1-Thio-β-D-galactopyranosyl)cyclohept-3-yl]-L,Ieucine]
inhibition at 1000 µg/mL (cholera toxin): ≥ 20% | inhibition of binding of heat-labile enterotoxin to ganglioside GD1b [1]: at least 20%

O=C(O)[C@H](Cc1c[nH]c2ccccc12)NC1CCCCC(S[C@@H]2O[C@H](CO)[C@H](O)[C@H](O)[C@H]2O)C1 (stereo partly drawn) [Example I5, Nα-[3-(1-Thio-β-D-galactopyranosyl)cyclohept-1-yl]-L-tryptophan]
inhibition at 1000 µg/mL (cholera toxin): ≥ 20% | inhibition of binding of heat-labile enterotoxin to ganglioside GD1b [1]: at least 20%

N=C(N)NCCC[C@H](NC1CCC(S[C@@H]2O[C@H](CO)[C@H](O)[C@H](O)[C@H]2O)C1)C(=O)O (stereo partly drawn) [Example J7, Nα-[3-(1-Thio-β-D-galactopyranosyl)cyclopent-1-yl]-L-arginine]
inhibition at 1000 µg/mL (cholera toxin): < 20% | inhibition of binding of heat-labile enterotoxin to ganglioside GD1b [1]: at least 20%
